In PubChem BioAssay AID330 (DTP/NCI, 2004):
“And” between values parts separate entries of the source, which are not always exact repeats. Equal values may be shown once. Toxic doses and inconclusive results are not listed. How the source made its calls: active means survival T/C of 150% or more; inactive means T/C below 125% in these data.

Test system: P388 leukemia ip, CD2F1 mice, survival T/C
Test: NCI In Vivo Anticancer Drug Screen. Data for tumor model P388 Leukemia (intraperitoneal) in CD2F1 (CDF1) mice
Conditions: endpoint: median survival time, higher = longer survival
Summary of the method: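 Mice carrying the transplanted tumor received test compound or vehicle. Survival was recorded in each group, and the value is the treated-group measurement divided by that of the vehicle-treated control group.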

[1] = dose: 50.0 mg/kg/injection, schedule: Q01DX005 (ip), vehicle: Klucel (hydroxypropylcellulose) (HPC)
[2] = dose: 100.0 mg/kg/injection, schedule: Q01DX005 (ip), vehicle: Klucel (hydroxypropylcellulose) (HPC)
[3] = dose: 200.0 mg/kg/injection, schedule: Q01DX005 (ip), vehicle: Klucel (hydroxypropylcellulose) (HPC)
[4] = dose: 50.0 mg/kg/injection, schedule: Q01DX009 (ip), vehicle: Klucel (hydroxypropylcellulose) (HPC)
[5] = dose: 100.0 mg/kg/injection, schedule: Q01DX009 (ip), vehicle: Klucel (hydroxypropylcellulose) (HPC)
[6] = dose: 200.0 mg/kg/injection, schedule: Q01DX009 (ip), vehicle: Klucel (hydroxypropylcellulose) (HPC)
[7] = dose: 50.0 mg/kg/injection, schedule: Q01DX009 (ip), vehicle: saline with Tween-80
[8] = dose: 100.0 mg/kg/injection, schedule: Q01DX009 (ip), vehicle: saline with Tween-80
[9] = dose: 60.0 mg/kg/injection, schedule: Q01DX005 (ip), vehicle: saline with Tween-80
[10] = dose: 120.0 mg/kg/injection, schedule: Q01DX005 (ip), vehicle: saline with Tween-80
[11] = dose: 50.0 mg/kg/injection, schedule: Q01DX005 (ip), vehicle: saline with Tween-80
[12] = dose: 100.0 mg/kg/injection, schedule: Q01DX005 (ip), vehicle: saline with Tween-80
[13] = dose: 200.0 mg/kg/injection, schedule: Q01DX005 (ip), vehicle: saline with Tween-80

Measured: T/C

CSc1nc(COC(=O)NC(C)C)c(COC(=O)NC(C)C)n1-c1ccccc1
inactive: dose: 12.5 mg/kg/injection, schedule: Q01DX005 (ip), vehicle: Klucel + Tween-80 111 % of control | dose: 25.0 mg/kg/injection, schedule: Q01DX005 (ip), vehicle: Klucel + Tween-80 101 % of control | dose: 50.0 mg/kg/injection, schedule: Q01DX005 (ip), vehicle: Klucel + Tween-80 95 % of control | dose: 100.0 mg/kg/injection, schedule: Q01DX005 (ip), vehicle: Klucel + Tween-80 97 % of control | dose: 200.0 mg/kg/injection, schedule: Q01DX005 (ip), vehicle: Klucel + Tween-80 90 % of control | dose: 400.0 mg/kg/injection, schedule: Q01DX005 (ip), vehicle: Klucel + Tween-80 100 % of control

Cc1cc2c3c([nH]c2cc1[N+](=O)[O-])CCCC3=O
inactive: dose: 25.0 mg/kg/injection, schedule: Q01DX005 (ip), vehicle: Klucel (hydroxypropylcellulose) (HPC) 88 % of control | [1] 88 % of control | [2] 86 % of control | [3] 90 % of control

O=C(NCCCCNC(=O)C12CC3CC(CC(C3)C1)C2)C12CC3CC(CC(C3)C1)C2
inactive: [1] 90 % of control | [2] 90 % of control | [3] 86 % of control

O=C1N=C2OC3(CCCCC3)OC(=O)N2C2(CCCCC2)O1
inactive: dose: 12.5 mg/kg/injection, schedule: Q01DX009 (ip), vehicle: distilled water + Tween-80 107 % of control | dose: 25.0 mg/kg/injection, schedule: Q01DX009 (ip), vehicle: distilled water + Tween-80 93 % of control | dose: 50.0 mg/kg/injection, schedule: Q01DX009 (ip), vehicle: distilled water + Tween-80 97 % of control | dose: 100.0 mg/kg/injection, schedule: Q01DX009 (ip), vehicle: distilled water + Tween-80 100 % of control and 96 % of control | dose: 200.0 mg/kg/injection, schedule: Q01DX009 (ip), vehicle: distilled water + Tween-80 109 % of control and 114 % of control

COCN(C)N=Nc1ccc(C(=O)OC)cc1
inactive: dose: 60.0 mg/kg/injection, schedule: Q01DX005 (ip), vehicle: Klucel (hydroxypropylcellulose) (HPC) 107 % of control | dose: 120.0 mg/kg/injection, schedule: Q01DX005 (ip), vehicle: Klucel (hydroxypropylcellulose) (HPC) 101 % of control | dose: 240.0 mg/kg/injection, schedule: Q01DX005 (ip), vehicle: Klucel (hydroxypropylcellulose) (HPC) 87 % of control

COC(=O)c1ccccc1NC(CCN1CCN(CCC(=NC(C)(C)C)Nc2ccccc2C(=O)OC)CC1)=NC(C)(C)C
inactive: [4] 93 % of control | [5] 96 % of control | [6] 92 % of control

Cc1nnsc1C(=O)NCc1c(F)cccc1Cl
inactive: [1] 97 % of control | [2] 99 % of control | [3] 98 % of control

COc1cc2c(cc1OC)C13CCN4C=C5CCOC6CC(=O)N2C1C6C5CC43 (stereo not given)
inactive: dose: 15.0 mg/kg/injection, schedule: Q01DX005 (ip), vehicle: saline 97 % of control | dose: 30.0 mg/kg/injection, schedule: Q01DX005 (ip), vehicle: saline 98 % of control | dose: 60.0 mg/kg/injection, schedule: Q01DX005 (ip), vehicle: saline 100 % of control and 103 % of control

N#CCC(O)(/C=C/c1ccccc1)c1ccccc1 (stereo not given)
inactive: dose: 100.0 mg/kg/injection, schedule: Q01DX009 (ip), vehicle: saline sonified 91 % of control | dose: 200.0 mg/kg/injection, schedule: Q01DX009 (ip), vehicle: saline sonified 86 % of control | dose: 400.0 mg/kg/injection, schedule: Q01DX009 (ip), vehicle: saline sonified 95 % of control

COP(=O)(OC)C1(C)CO1 (stereo not given)
inactive: [4] 87 % of control | [5] 91 % of control | [6] 86 % of control

O=C1CC2(O)CSc3nc(=O)cc(n32)N1 (stereo not given)
inactive: dose: 50.0 mg/kg/injection, schedule: Q01DX005 (ip), vehicle: saline 107 % of control | dose: 100.0 mg/kg/injection, schedule: Q01DX005 (ip), vehicle: saline 106 % of control | dose: 200.0 mg/kg/injection, schedule: Q01DX005 (ip), vehicle: saline 94 % of control

CN1/C(=C2\C=CC=C\C2=N/S(=O)(=O)c2ccc(Cl)cc2)Sc2ccccc21
inactive: dose: 100.0 mg/kg/injection, schedule: Q04DX003 (ip), vehicle: saline 103 % of control | dose: 200.0 mg/kg/injection, schedule: Q04DX003 (ip), vehicle: saline 104 % of control | dose: 400.0 mg/kg/injection, schedule: Q04DX003 (ip), vehicle: saline 99 % of control

Cc1ccc(S(=O)(=O)N/N=C/c2cc([N+](=O)[O-])ccc2O)cc1
inactive: dose: 12.5 mg/kg/injection, schedule: Q01DX005 (ip), vehicle: distilled water + Tween-80 93 % of control | dose: 25.0 mg/kg/injection, schedule: Q01DX005 (ip), vehicle: distilled water + Tween-80 100 % of control | dose: 50.0 mg/kg/injection, schedule: Q01DX005 (ip), vehicle: distilled water + Tween-80 112 % of control | dose: 100.0 mg/kg/injection, schedule: Q01DX005 (ip), vehicle: distilled water + Tween-80 105 % of control

COC1=C(OC)C(=O)C(C/C=C(\C)CC/C=C(\C)CC/C=C(\C)CC/C=C(\C)CC/C=C(\C)CC/C=C(\C)CC/C=C(\C)CC/C=C(\C)CC/C=C(\C)CCC=C(C)C)=C(C)C1=O
inactive: dose: 3.13 mg/kg/injection, schedule: Q01DX009 (ip), vehicle: saline with Tween-80 90 % of control and 96 % of control | dose: 6.25 mg/kg/injection, schedule: Q01DX009 (ip), vehicle: saline with Tween-80 86 % of control and 93 % of control | dose: 12.5 mg/kg/injection, schedule: Q01DX009 (ip), vehicle: saline with Tween-80 96 % of control | dose: 25.0 mg/kg/injection, schedule: Q01DX009 (ip), vehicle: saline with Tween-80 86 % of control and 87 % of control | [7] 90 % of control | [8] 86 % of control and 87 % of control

CC1=CCC(C(C)(O)C2CCC3(C)C4=C(C=C5C=CC(=O)OC(C)(C)C5CC4)CCC23C)OC1=O (stereo not given)
inactive: dose: 12.5 mg/kg/injection, schedule: Q01DX005 (ip), vehicle: other 94 % of control | dose: 25.0 mg/kg/injection, schedule: Q01DX005 (ip), vehicle: other 92 % of control

COc1ccccc1N/N=c1\c2nc3ccccc3nc1n(-c1ccccc1C)c(=S)n2-c1ccccn1
inactive: [9] 102 % of control | [10] 96 % of control

CCCCCCOc1ccc(OCCCC[N+]2(CC)CCCCC2)cc1
inactive: dose: 1.56 mg/kg/injection, schedule: Q01DX009 (ip), vehicle: saline 105 % of control | dose: 3.12 mg/kg/injection, schedule: Q01DX009 (ip), vehicle: saline 106 % of control | dose: 6.25 mg/kg/injection, schedule: Q01DX009 (ip), vehicle: saline 104 % of control

CNC(=O)Nc1nccs1
inactive: [7] 105 % of control | [8] 96 % of control | dose: 200.0 mg/kg/injection, schedule: Q01DX009 (ip), vehicle: saline with Tween-80 97 % of control

C1C2OC2C2C1C1CC2C2OC12 (stereo not given)
inactive: dose: 6.25 mg/kg/injection, schedule: Q01DX009 (ip), vehicle: Klucel (hydroxypropylcellulose) (HPC) 105 % of control | dose: 12.5 mg/kg/injection, schedule: Q01DX009 (ip), vehicle: Klucel (hydroxypropylcellulose) (HPC) 96 % of control | dose: 25.0 mg/kg/injection, schedule: Q01DX009 (ip), vehicle: Klucel (hydroxypropylcellulose) (HPC) 99 % of control

CC(=O)CC(=O)c1ccc(F)cc1.CC(=O)CC(=O)c1ccc(F)cc1.[Cu]
inactive: dose: 10.0 mg/kg/injection, schedule: Q01DX009 (ip), vehicle: saline with Tween-80 88 % of control | dose: 20.0 mg/kg/injection, schedule: Q01DX009 (ip), vehicle: saline with Tween-80 89 % of control

CN(C)P(=O)(N(C)C)N(C)CO
inactive: dose: 50.0 mg/kg/injection, schedule: Q01DX009 (ip), vehicle: saline 98 % of control and 100 % of control | dose: 100.0 mg/kg/injection, schedule: Q01DX009 (ip), vehicle: saline 104 % of control and 110 % of control | dose: 200.0 mg/kg/injection, schedule: Q01DX009 (ip), vehicle: saline 121 % of control and 122 % of control | dose: 400.0 mg/kg/injection, schedule: Q01DX009 (ip), vehicle: saline 86 % of control

Cc1cc(C)n2c(-c3ccccc3)c(C)c(C(N)=O)c2n1
inactive: [9] 98 % of control | [10] 99 % of control | dose: 240.0 mg/kg/injection, schedule: Q01DX005 (ip), vehicle: saline with Tween-80 100 % of control

CCOC(=O)C(O)Cc1cnc2ccccc2n1 (stereo not given)
inactive: [11] 108 % of control | [12] 108 % of control | [13] 100 % of control

COC(=O)C1C(C(=O)OC)C2N(c3ccccc3)C=NN2C1C(=O)c1ccccc1 (stereo not given)
inactive: [11] 96 % of control | [12] 103 % of control | [13] 93 % of control
